Test results reported in ChEMBL document CHEMBL3769336, “Discovery of a Chemical Tool Inhibitor Targeting the Bromodomains of TRIM24 and BRPF” (J Med Chem, 2016).

What was measured:
[1] = target: T1, Bromodomain-containing protein 1 (Homo sapiens, UniProt O95696); assay: Binding affinity to BRPF2 BRD1 (unknown origin) by isothermal titration calorimetry
T1 sequence (O95696 whole entry): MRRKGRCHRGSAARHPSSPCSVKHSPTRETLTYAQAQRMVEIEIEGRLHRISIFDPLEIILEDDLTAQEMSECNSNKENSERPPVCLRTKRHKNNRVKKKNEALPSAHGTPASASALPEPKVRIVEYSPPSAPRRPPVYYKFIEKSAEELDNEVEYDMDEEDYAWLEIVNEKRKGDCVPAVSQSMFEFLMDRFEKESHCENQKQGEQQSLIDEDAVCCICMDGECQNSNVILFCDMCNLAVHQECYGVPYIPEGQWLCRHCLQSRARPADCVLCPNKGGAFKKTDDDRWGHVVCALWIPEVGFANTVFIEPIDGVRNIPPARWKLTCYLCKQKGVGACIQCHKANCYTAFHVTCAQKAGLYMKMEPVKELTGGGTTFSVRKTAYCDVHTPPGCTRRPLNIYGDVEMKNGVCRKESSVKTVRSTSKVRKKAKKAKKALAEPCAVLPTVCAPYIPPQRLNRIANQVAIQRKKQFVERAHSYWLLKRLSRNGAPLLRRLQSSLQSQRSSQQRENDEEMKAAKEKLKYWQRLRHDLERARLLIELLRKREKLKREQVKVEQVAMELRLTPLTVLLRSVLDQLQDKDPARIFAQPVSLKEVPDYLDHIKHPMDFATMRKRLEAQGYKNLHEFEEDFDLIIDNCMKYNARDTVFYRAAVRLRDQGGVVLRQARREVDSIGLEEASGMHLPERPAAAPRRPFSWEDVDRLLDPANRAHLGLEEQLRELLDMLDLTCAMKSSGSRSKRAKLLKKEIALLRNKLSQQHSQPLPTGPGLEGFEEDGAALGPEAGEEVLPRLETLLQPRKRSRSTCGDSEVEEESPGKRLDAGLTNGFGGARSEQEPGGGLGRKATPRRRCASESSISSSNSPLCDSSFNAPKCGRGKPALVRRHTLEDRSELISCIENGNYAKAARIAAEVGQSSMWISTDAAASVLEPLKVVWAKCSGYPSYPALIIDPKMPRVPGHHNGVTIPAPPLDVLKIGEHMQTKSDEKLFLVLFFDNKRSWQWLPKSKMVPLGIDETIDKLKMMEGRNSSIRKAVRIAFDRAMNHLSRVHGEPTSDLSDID

[2] = target: T1, Bromodomain-containing protein 1; assay: Inhibition of BRPF2 BRD1 (unknown origin) by Alpha Screen assay
[3] = target: T2, Peregrin (Homo sapiens, UniProt P55201); assay: Inhibition of BRPF1B (unknown origin) by Alpha Screen assay
T2 sequence (P55201 whole entry): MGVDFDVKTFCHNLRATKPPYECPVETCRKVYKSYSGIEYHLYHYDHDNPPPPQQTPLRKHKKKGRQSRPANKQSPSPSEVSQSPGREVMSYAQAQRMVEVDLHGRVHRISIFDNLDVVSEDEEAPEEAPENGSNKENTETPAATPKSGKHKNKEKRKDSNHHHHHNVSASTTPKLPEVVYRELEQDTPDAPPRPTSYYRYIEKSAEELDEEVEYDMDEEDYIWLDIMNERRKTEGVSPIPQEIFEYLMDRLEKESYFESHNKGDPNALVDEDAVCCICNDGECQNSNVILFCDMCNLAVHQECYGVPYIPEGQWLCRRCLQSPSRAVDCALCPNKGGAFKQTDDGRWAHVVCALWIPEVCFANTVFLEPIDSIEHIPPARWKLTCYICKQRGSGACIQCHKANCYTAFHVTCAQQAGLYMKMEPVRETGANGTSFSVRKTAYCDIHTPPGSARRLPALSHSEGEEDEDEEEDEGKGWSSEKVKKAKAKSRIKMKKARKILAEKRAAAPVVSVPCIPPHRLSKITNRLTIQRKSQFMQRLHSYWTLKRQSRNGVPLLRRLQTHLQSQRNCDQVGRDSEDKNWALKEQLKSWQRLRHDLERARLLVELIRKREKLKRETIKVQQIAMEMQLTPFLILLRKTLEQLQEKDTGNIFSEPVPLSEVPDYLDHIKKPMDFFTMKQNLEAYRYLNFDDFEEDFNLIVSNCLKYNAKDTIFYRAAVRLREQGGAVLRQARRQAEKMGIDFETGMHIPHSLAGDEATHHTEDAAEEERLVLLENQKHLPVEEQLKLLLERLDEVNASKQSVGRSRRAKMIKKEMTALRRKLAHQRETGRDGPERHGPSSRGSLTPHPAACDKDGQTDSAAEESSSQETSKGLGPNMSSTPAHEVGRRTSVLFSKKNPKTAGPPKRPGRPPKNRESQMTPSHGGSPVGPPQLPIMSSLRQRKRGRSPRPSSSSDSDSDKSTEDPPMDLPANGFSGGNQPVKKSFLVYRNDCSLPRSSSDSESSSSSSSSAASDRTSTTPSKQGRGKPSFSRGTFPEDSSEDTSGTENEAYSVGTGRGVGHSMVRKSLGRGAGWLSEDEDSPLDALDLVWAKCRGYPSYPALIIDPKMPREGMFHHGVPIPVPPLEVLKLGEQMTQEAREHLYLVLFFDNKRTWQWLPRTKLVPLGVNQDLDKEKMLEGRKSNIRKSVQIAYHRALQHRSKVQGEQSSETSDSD

Kd [1]: 1.13 µM
IC50 [2]: 1.75 µM
IC50 [3]: 0.34 µM
SMILES: COc1ccc(Oc2cc3c(cc2NS(=O)(=O)c2ccc(OC)c(OC)c2)n(C)c(=O)n3C)cc1
